For one assay, the target named is T1, OATP1B1 (Homo sapiens, UniProt Q9Y6L6).
T1 construct: host or cells: CHO
T1 sequence (Q9Y6L6 1-691): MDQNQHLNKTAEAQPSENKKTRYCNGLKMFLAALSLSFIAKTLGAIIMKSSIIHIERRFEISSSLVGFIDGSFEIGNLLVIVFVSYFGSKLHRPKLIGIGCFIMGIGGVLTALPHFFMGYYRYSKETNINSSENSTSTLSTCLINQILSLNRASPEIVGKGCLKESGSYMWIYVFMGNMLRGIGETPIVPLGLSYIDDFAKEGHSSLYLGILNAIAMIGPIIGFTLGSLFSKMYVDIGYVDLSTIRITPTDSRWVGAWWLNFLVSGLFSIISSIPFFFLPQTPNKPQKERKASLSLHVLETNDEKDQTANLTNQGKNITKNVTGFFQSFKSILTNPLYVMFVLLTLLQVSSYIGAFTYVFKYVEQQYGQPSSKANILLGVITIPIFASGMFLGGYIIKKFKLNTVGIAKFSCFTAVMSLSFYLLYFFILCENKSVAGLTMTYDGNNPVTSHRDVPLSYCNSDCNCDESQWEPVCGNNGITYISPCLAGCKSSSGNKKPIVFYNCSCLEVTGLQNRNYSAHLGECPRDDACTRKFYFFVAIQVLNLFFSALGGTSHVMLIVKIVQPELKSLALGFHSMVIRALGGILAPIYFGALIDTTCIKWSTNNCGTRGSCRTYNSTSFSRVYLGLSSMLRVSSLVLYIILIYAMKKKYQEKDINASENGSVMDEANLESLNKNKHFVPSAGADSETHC
In words: OATP1B1 inhibition, Fluo 3 uptake in transfected CHO cells. The class given is cell-based. The text has this: (§1) Chinese Hamster Ovary (CHO) cells were obtained from Professor B. Stieger’s laboratory at University of Zurich, Zurich, Switzerland. Madin-Darby Canine Kidney strain II (MDCKII) cells were obtained from Nederlands Kanker Instituut (NKI), Amsterdam, Netherlands. NTCP-CHO cells, BSEP and MRP2 membrane vesicles were developed and validated at Solvo Biotechnology, Budaors, Hungary.
CHO cells, either wild type or transfected with the genes encoding human NTCP, OATP1B1 and OATP1B3, were maintained in Dulbecco’s Modification of Eagle’s Medium (DMEM) containing 1,000 mg/L D-glucose, L-glutamine, 25 mM HEPES buffer, 110 mg/L sodium pyruvate, 1% Penicillin/Streptomycin, 10% fetal bovine serum (FBS), 0.05 mg/mL L proline and 0.5 mg/mL of geneticin G-418. Cells were maintained in incubators set at 37°C, 90% humidity and 5% CO2. OATP1B1 and OATP1B3 over-expressing cells were seeded in BioCoat Poly-D-Lysine coated 96-well black cell culture plates with clear bottoms at a density of 1×10^5 cells/well. Sodium butyrate (10 mM) was added to the OATP1B1 and OATP1B3 cells once seeded to increase the protein expression level and the cells were grown to confluence overnight. The assay buffer contained 142 mM NaCl, 5 mM KCl, 1 mM KH2PO4, 1.2 mM MgSO4, 1.5 mM CaCl2, 5 mM Glucose and 12.5 mM HEPES (pH 7.4). After removal of the media and before adding test compounds, the cells were washed twice with 37°C assay buffer followed by a 0.5 h pre-incubation with assay buffer. […] Wells were analyzed for Fluo 3 fluorescence at an excitation of 485 nm and emission of 530 nm. Inhibition of NTCP was studied using similar conditions to those described for OATP1B1 and OATP1B3 except that inhibition of the uptake ^3H taurocholate into transfected CHO cells was monitored using radioactive scintillation counting.
All assays were performed in duplicate. […] IC50 values were calculated using non-linear fitting of % inhibition versus concentration to a sigmoidal curve with a variable Hill Coefficient using GraphPad Prism 5 (GraphPad Software Inc., San Diego, CA).

The target of the next assay is T2, BSEP (Homo sapiens, UniProt O95342).
T2 construct: purchased Solvo Biotechnology, Budaors, Hungary; host or cells: Sf9 insect cells (membrane vesicles)
In words: BSEP inhibition, taurocholate transport in Sf9 membrane vesicles. To be noted: taurocholate 2 µM, mean ± SD of 3 independent studies in duplicate, tested 0.14–100 µM. In kind it is biochemical.
Text: as §1
BSEP and MRP2 inhibition was studied in membrane vesicles isolated from sf9 insect cells overexpressing the respective transporters. Vesicular transport inhibition assays used test compounds incubated with membrane vesicle preparations (total protein: 50 µg/well) and probe substrates, taurocholate (2 µM) for BSEP or Estradiol-17-beta-glucuronide (0.2 µM) for MRP2, in the absence or presence of ATP. Reaction mixtures were preincubated for 15 min at 37°C. Reactions were started by the addition of 25 µL of 12 mM MgATP or assay buffer (for background controls), preincubated separately. Reactions were stopped after 5 min by the addition of 200 µL of ice-cold washing buffer and immediate filtration via glass fiber filters mounted to a 96-well plate (filter plate). The filters were washed, dried and the amount of substrate inside the filtered vesicles determined by liquid scintillation. Cyclosporin A (20 µM) or benzbromarone (100 µM), for BSEP or MRP2, respectively, were used as positive control inhibitors. Control membranes lacking transporter expression were used as negative control.
All assays were performed in duplicate. IC50 was defined as the test article concentration needed to inhibit the maximal transporter specific accumulation by 50%. IC50 values were calculated using non-linear fitting of % inhibition versus concentration to a sigmoidal curve with a variable Hill Coefficient using GraphPad Prism 5 (GraphPad Software Inc., San Diego, CA).

Where [1] appears, read: CHO cells, Fluo 3, mean ± SD of 3 independent studies in duplicate, tested 0.14–100 µM, read-out: OATP1B1 IC50.

Values joined by “and” are separate entries in the source; they are usually repeats but may differ in a detail not shown here. Identical values can stand only once. Like-named read-outs stand apart in the source and are kept apart here.

T2 sequence (O95342 whole entry): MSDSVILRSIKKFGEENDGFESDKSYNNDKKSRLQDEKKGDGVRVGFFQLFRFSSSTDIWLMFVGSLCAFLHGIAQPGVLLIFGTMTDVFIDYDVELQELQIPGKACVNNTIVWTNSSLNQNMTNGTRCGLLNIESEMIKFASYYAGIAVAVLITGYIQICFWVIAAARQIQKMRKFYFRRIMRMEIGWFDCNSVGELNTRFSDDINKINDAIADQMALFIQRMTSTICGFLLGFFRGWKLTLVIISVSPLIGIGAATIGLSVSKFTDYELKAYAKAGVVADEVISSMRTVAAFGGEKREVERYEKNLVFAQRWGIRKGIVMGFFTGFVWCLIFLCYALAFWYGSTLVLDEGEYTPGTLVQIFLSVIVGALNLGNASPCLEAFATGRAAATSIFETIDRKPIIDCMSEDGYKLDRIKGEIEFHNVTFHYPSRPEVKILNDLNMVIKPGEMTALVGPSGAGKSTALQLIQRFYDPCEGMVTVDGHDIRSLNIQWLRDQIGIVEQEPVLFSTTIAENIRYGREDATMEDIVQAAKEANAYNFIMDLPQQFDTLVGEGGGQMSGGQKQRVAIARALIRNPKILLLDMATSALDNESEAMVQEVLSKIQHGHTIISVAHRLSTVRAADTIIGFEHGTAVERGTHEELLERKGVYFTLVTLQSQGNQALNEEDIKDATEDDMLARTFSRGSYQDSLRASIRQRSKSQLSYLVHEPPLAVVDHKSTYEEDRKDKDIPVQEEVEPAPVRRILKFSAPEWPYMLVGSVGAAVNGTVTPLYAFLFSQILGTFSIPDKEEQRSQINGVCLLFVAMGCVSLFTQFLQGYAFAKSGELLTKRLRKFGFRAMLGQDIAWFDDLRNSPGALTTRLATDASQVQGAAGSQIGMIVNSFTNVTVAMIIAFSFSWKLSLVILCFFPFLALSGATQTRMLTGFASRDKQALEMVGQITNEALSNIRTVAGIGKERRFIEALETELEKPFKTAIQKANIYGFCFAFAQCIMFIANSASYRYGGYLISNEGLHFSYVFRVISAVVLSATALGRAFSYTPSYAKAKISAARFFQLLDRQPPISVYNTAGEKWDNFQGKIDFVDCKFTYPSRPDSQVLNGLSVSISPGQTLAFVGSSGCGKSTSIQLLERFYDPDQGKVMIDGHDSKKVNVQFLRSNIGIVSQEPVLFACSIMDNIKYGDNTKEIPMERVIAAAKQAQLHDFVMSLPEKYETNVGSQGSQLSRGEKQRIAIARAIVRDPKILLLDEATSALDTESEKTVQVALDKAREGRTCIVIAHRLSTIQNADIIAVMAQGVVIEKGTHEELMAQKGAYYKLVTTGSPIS

In the case of `COC(c1ccccc1)(c1ccccc1)[C@H](Oc1nc(C)cc(C)n1)C(=O)O` [ambrisentan], the concentration for half-maximal inhibition (IC50) was 47 ± 21.3 µM against OATP1B1 and more than 100 µM against BSEP.

For the molecule `COc1ccccc1Oc1c(NS(=O)(=O)c2ccc(C(C)(C)C)cc2)nc(-c2ncccn2)nc1OCCO` [bosentan], the IC50 was 5 ± 2 µM on OATP1B1 (setting [1]); 42 µM and 42.1 µM against BSEP.

For `CCCNS(=O)(=O)Nc1ncnc(OCCOc2ncc(Br)cn2)c1-c1ccc(Br)cc1` [macitentan], the concentration for half-maximal inhibition (IC50) was 2 ± 0.3 µM on OATP1B1 (setting [1]); 12 µM and 11.9 µM on BSEP.

Usually IC50 stands for the concentration needed to halve the response being measured.
